Assay results taken from publication PMC7567791 (Scientific Reports, 2020).

Biological target: T1, μ-OR (Homo sapiens, UniProt P35372)
T1 construct: expressed in transfected cells; host or cells: HEK293A parental, ΔGRK2, ΔGRK3, ΔGRK2/3 (and Δβ-arrestin1/2) cells
Format: cell-based

T1 sequence (P35372 whole entry): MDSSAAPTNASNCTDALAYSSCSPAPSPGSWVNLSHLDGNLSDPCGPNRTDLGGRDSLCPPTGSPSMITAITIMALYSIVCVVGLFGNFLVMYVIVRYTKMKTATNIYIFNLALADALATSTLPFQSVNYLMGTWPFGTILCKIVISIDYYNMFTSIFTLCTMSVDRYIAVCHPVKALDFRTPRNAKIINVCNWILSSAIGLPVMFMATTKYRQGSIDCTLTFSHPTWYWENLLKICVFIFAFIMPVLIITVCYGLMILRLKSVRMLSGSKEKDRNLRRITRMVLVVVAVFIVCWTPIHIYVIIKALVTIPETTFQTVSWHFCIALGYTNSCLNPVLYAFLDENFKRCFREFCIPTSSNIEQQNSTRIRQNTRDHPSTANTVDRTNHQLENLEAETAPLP

With C[C@@H](NC(=O)[C@@H](N)Cc1ccc(O)cc1)C(=O)NCC(=O)N(C)[C@@H](Cc1ccccc1)C(=O)NCCO [DAMGO, D-Ala(2)-mephe(4)-gly-ol(5))enkephalin] the “time of peak in β-arrestin2 recruitment to μ-OR-EYFP” value was 6 min.
